Consider 10 compounds from patent US11420961B2, “Heterocyclic compounds” (Hoffmann-La Roche Inc., priority 2017, dated 2022).

The test addresses T1, MAGL (Homo sapiens, UniProt Q99685).
T1 sequence (Q99685 1-303): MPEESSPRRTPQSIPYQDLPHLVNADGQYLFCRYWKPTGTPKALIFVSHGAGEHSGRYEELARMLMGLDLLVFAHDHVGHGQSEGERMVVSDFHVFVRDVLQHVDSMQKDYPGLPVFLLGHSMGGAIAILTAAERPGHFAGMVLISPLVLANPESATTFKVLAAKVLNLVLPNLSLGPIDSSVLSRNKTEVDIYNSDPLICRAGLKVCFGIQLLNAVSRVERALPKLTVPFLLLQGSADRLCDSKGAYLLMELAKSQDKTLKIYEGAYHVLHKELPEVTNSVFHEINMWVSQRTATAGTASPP
Nature of the test: 2-AG assay: MAGL inhibitory activity by hydrolysis of 2-arachidonoylglycerol to arachidonic acid, mass spectrometry. The test is classed as biochemical. To be noted: 2-AG assay (values marked [a]). The protocol:
Alternatively, compounds were profiled for MAGL inhibitory activity by determining the enzymatic activity by following the hydrolysis of the natural substrate, 2-arachidonoylglycerol, resulting in arachidonic acid, which can be followed by mass spectrometry. This assay is hereinafter abbreviated “2-AG assay”.
The 2-AG assay was carried out in 384 well assay plates (PP, Greiner Cat #784201) in a total volume of 20 μL. Compound dilutions were made in 100% DMSO (VWR Chemicals 23500.297) in a polypropylene plate in 3-fold dilution steps to give a final concentration range in the assay from 12.5 μM to […]. 0.25 μL compound dilutions (100% DMSO) were added to 9 μL MAGL in assay buffer (50 mM TRIS (GIBCO, 15567-027), 1 mM EDTA (Fluka, 03690-100 ml), 0.01% (v/v) Tween. After shaking, the plate was incubated for 15 min at RT. To start the reaction, 10 μL 2-arachidonoylglycerol in assay buffer was added. The final concentrations in the assay was […] and 8 μM 2-arachidonoylglyerol. After shaking and 30 min incubation at RT, the reaction was quenched by the addition of 40 μL of acetonitrile containing 4 μM of d8-arachidonic acid. The amount of arachidonic acid was traced by an online SPE system (Agilent Rapidfire) coupled to a triple quadrupole mass spectrometer (Agilent 6460). A C18 SPE cartridge (G9205A) was used in an acetonitrile/water liquid setup. The mass spectrometer was operated in negative electrospray mode following the mass transitions 303.1→259.1 for arachidonic acid and 311.1→267.0 for d8-arachidonic acid. The activity of the compounds was calculated based on the ratio of intensities [arachidonic acid/d8-arachidonic acid].
Consider `COc1ccc(C(c2ccccc2)C2CCN(C(=O)c3ccc4c(c3)NC(=O)CO4)CC2)cc1OCCF` (single isomer, unassigned) [Example 134, 6-[4-[(S or R)-3-(2-Fluoroethoxy)-4-methoxy-phenyl-phenyl-methyl]piperidine-1-carbonyl]-4H-1,4-benzoxazin-3-one], for which half-maximal inhibition (IC50) was put at 0.11 nM.

As to `Cn1cc(C(c2ccccc2)C2CCN(C(=O)c3ccc4c(c3)NC(=O)CO4)CC2)cn1` (single isomer, unassigned) [Example 140, 6-[4-[(S or R)-(1-Methylpyrazol-4-yl)-phenyl-methyl]piperidine-1-carbonyl]-4H-1,4-benzoxazin-3-one], 0.62 nM corresponded to half-maximal inhibition (IC50).

For the compound `CS(=O)(=O)c1ccc(C(c2ccccc2)C2CCN(C(=O)c3ccc4c(c3)NC(=O)CO4)CC2)cc1` (single isomer, unassigned) [Example 132, 6-[4-[(S or R)-(4-Methylsulfonylphenyl)-phenyl-methyl]piperidine-1-carbonyl]-4H-1,4-benzoxazin-3-one], the midpoint of inhibition, the IC50, lay at 0.27 nM.

Consider `COc1cc(C(c2ccccc2)C2CCN(C(=O)c3ccc4c(c3)NC(=O)CO4)CC2)ccn1` (single isomer, unassigned) [Example 137, 6-[4-[(R or S)-(2-Methoxy-4-pyridyl)-phenyl-methyl]piperidine-1-carbonyl]-4H-1,4-benzoxazin-3-one], for which 0.24 nM corresponded to half-maximal inhibition (IC50).

For the compound `Cn1cc(C(c2ccccc2)C2CCN(C(=O)c3ccc4c(c3)NC(=O)CO4)CC2)cn1` (single isomer, unassigned) [Example 141, 6-[4-[(R or S)-(1-Methylpyrazol-4-yl)-phenyl-methyl]piperidine-1-carbonyl]-4H-1,4-benzoxazin-3-one], 6.68 nM corresponded to half-maximal inhibition (IC50).

Turning to `O=C1COc2ccc(C(=O)N3CC(C(c4ccccc4)c4ccccc4)C3)cc2N1` [Example 124, 6-(3-Benzhydrylazetidine-1-carbonyl)-4H-1,4-benzoxazin-3-one], the concentration for half-maximal inhibition (IC50) – broadly, the midpoint of a concentration-inhibition curve – came out at 258 nM.

In turn, `CS(=O)(=O)c1ccc(C(c2ccccc2)C2CCN(C(=O)c3ccc4c(c3)NC(=O)CO4)CC2)cc1` (single isomer, unassigned) [Example 133, 6-[4-[(R or S)-(4-Methylsulfonylphenyl)-phenyl-methyl]piperidine-1-carbonyl]-4H-1,4-benzoxazin-3-one] showed a half-inhibitory concentration (IC50) of 25.1 nM.

Compound `Cn1ccc(C(c2ccccc2)C2CCN(C(=O)c3ccc4c(c3)NC(=O)CO4)CC2)cc1=O` (single isomer, unassigned) [Example 142, 6-[4-[(S or R)-(1-Methyl-2-oxo-4-pyridyl)-phenyl-methyl]piperidine-1-carbonyl]-4H-1,4-benzoxazin-3-one] yielded an IC50 of 0.66 nM.

In turn, `COc1cccc(C(c2ccccc2)C2CN(C(=O)c3ccc4c(c3)NC(=O)CO4)C2)c1` (stereo not shown) [Example 131, 6-[3-[(3-Methoxyphenyl)-phenyl-methyl]azetidine-1-carbonyl]-4H-1,4-benzoxazin-3-one] displayed a concentration for half-maximal inhibition (IC50) of 182 nM.

`COc1cc(C(c2ccccc2)C2CCN(C(=O)c3ccc4c(c3)NC(=O)CO4)CC2)ccc1OCCF` (single isomer, unassigned) [Example 139, 6-[4-[(R or S)-[4-(2-Fluoroethoxy)-3-methoxy-phenyl]-phenyl-methyl]piperidine-1-carbonyl]-4H-1,4-benzoxazin-3-one] had a half-inhibitory concentration (IC50) of 0.17 nM.
